Structures are written as SMILES.

The data set in a line: MTD assay, single administration to mice. Particulars: ICR male mice, tail intravenous administration, 14 days. In kind it is in vivo. The source says:
MTD Assay for a Single […] to Mice
1. Experimental Animals: ICR male mice, weighing 19-22 g, were purchased from Beijing Vital River Laboratory Animal Technology Co., Ltd., Animal License No. SCXK (Beijing) 2007-0001
2. Experimental Scheme: 21 mice were divided into nine groups: groups I, IV and VI referred to one mouse per group, groups II, V and IIX referred to four mice per group, and group III, VI and IX referred to two mice per group. Compound 4, compound 2 and compound 12 were dissolved in water for injection. Groups I-III were subjected to tail intravenous administration of compound 4 (N-[4-(3-chloro-4-fluorophenylamino)-7-(2-methoxyethoxy)quinazolin-6yl]-2-[piperidin-4-ylidene]acetamide dihydrochloride) at doses of 100 mg/kg, 150 mg/kg, and 200 mg/kg, respectively. The animal response and the weight change were observed after administration, and these animals were sacrificed after 14 days for anatomical observation. Groups IV-VI were subjected to tail intravenous administration of compound 2 (N-[4-(3-chloro-4-fluorophenylamino)-7-(2-methoxyethoxy)quinazolin-6yl]-2-[1-(2-methoxyethyl)piperidin-4-ylidene]acetamide dihydrochloride) at doses of 100 mg/kg, 150 mg/kg, and 200 mg/kg, respectively. The animal response and the weight change were observed after administration, and these animals were sacrificed after 14 days for anatomical observation. Groups VII-IX were subjected to tail intravenous administration of compound 12 (N-[4-(3-ethynylphenylamino-7-(2-ethoxy)quinazolin-6yl]-2-[1-methylpiperidin-4-ylidene]acetamide dihydrochloride) at doses of 100 mg/kg, 150 mg/kg, and 200 mg/kg, respectively. The animal response and the weight change were observed after administration, and these animals were sacrificed after 14 days for anatomical observation.

Regarding `COCCOc1cc2ncnc(Nc3ccc(F)c(Cl)c3)c2cc1NC(=O)C=C1CCN(CCOC)CC1.Cl.Cl` [Compound 2, N-[4-(3-chloro-4-fluorophenylamino)-7-(2-methoxyethoxy)quinazolin-6yl]-2-[1-(2-methoxyethyl)piperidin-4-ylidene]acetamide dihydrochloride], the Mortality reads like this: (100 mg/kg, 1 animal) 0%; (150 mg/kg, 4 animals) 0%; (200 mg/kg, 2 animals) 0%. For the same compound, the “Number of Deaths” value came out at 0 (100 mg/kg, 1 animal); 0 (150 mg/kg, 4 animals); 0 (200 mg/kg, 2 animals).

For the origin of these results see patent US9840494B2, “Quinazoline derivative” (Tianjin Hemay Oncology Pharmaceutical Co., Ltd., priority 2013, dated 2017).
